In general, IC50 refers to the concentration that gives 50% inhibition.

The subject of assay [1] is cultured human mast cells. As to the kind of experiment: Degranulation inhibition test using cultured human mast cells (IgE cross-linking, β-Hexosaminidase release). Format: cell-based. The note with it: Mast cell, cultured human mast cells, read-out: human degranulation ave. IC50. The procedure, abridged:
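Degranulation was triggered by anti-hIgE (10 μg/mL final, 30 min, 37 °C) after a 10-min compound pretreatment (DMSO 0.1%) of cord-blood CD34+-derived mast cells primed 5 days with IL-4 and IgE. β-Hexosaminidase in supernatant was measured with p-nitrophenyl-GlcNAc substrate (A405), expressed against water-lysed total; IC50 (M).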

Assay [2] has as its target GST-Syk Full Protein (human) (Homo sapiens, UniProt P43405). Put plainly: Syk kinase inhibition test (HTRF method). It counts as biochemical. The gist of the method: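 HTRF read-out: after EDTA termination and 1 h with XL665-streptavidin and Eu-anti-phosphotyrosine, the 665/620 nm ratio was measured. The reaction ran 30 min at 20–25 °C with final 6.4 nM human GST-Syk, 250 nM biotinylated peptide, 100 μM ATP, pH 7.0 HEPES buffer, 2% DMSO.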
A general note: TR-FRET usually uses a lanthanide donor and a delayed reading to cut background.

Where [3] appears, read: Tables 1-x, compounds A, read-out: sykHTRF ave IC50.
Where [4] appears, read: Tables 2-x, thiophene compounds B.
Setting [5] is: Tables 2-x, thiophene compounds B, read-out: sykHTRK ave IC50.

Counter-ions that a name gives are not always drawn. Like-named read-outs stand apart in the source and are kept apart here.

As for `Cc1ccnc(Nc2cccc(-c3cnc(N(C)C(C)(C)c4ccc(C(=O)O)cc4)s3)n2)c1` [Compound A-616, 4-[1-methyl-1-(N-methyl-N-{5-[6-(4-methylpyridin-2-ylamino)pyridin-2-yl]thiazol-2-yl}amino)ethyl]benzoic acid dihydrochloride], the IC50 in assay [1] (Tables 1-x, compounds A) was 100 to 1000 nM; in assay [2] (setting [3]) it was under 100 nM.
On to `Cc1ccnc(Nc2cccc(-c3cnc(N(C)c4ccc(CC(=O)O)cc4)s3)n2)c1` [Compound A-617, [4-(N-methyl-N-{5-[6-(4-methylpyridin-2-ylamino)pyridin-2-yl]thiazol-2-yl}amino)phenyl]acetic acid dihydrochloride], for which the IC50 was over 1000 nM in assay [1] (Tables 1-x, compounds A) and under 100 nM in assay [2] (setting [3]).
Turning to `O=C(O)CC1CCN(c2ncc(-c3cccc(Nc4cc(Cl)ccn4)n3)s2)CC1` [Compound A-620, (1-{5-[6-(4-chloropyridin-2-ylamino)pyridin-2-yl]thiazol-2-yl}piperidin-4-yl)acetic acid dihydrochloride], the 50% inhibitory concentration (IC50) in assay [1] (Tables 1-x, compounds A) is 100 to 1000 nM; in assay [2] (setting [3]), under 100 nM.
The like results for `Cc1ccnc(Nc2cccc(-c3cnc(N4CCC(C(C)C(=O)O)CC4)s3)n2)c1` (centres unmarked) [Compound A-652, 2-(1-{5-[6-(4-methylpyridin-2-ylamino)pyridin-2-yl]thiazol-2-yl}piperidin-4-yl)propionic acid] were, in that order, under 100 nM and under 100 nM.
Consider `CC(=O)c1ccc(-c2cccc(Nc3cc(C)ccn3)n2)s1` [Compound B-1, 1-{5-[6-(4-methylpyridin-2-ylamino)pyridin-2-yl]thiophen-2-yl}ethanone], for which the IC50 is over 1000 nM in assay [1] (setting [4]) and under 100 nM in assay [2] (setting [5]).
For `Cc1ccnc(Nc2cccc(-c3ccc(C=O)s3)n2)c1` [Compound B-2, 5-[6-(4-methylpyridin-2-ylamino)pyridin-2-yl]thiophene-2-carboxaldehyde] the same measures were over 1000 nM and under 100 nM.
The like results for `Cc1ccnc(Nc2cccc(-c3ccc(C(C)O)s3)n2)c1` (centres unmarked) [Compound B-3, 1-{5-[6-(4-methylpyridin-2-ylamino)pyridin-2-yl]thiophen-2-yl}ethanol] were, in that order, 100 to 1000 nM and 100 to 1000 nM.
For `CC(=O)OC(C)c1ccc(-c2cccc(Nc3cc(C)ccn3)n2)s1` (centres unmarked) [Compound B-4, 1-{5-[6-(4-methylpyridin-2-ylamino)pyridin-2-yl]thiophen-2-yl}ethyl acetate acetic acid ester] the same measures were over 1000 nM and 100 to 1000 nM.
With `Cc1ccnc(Nc2cccc(-c3sccc3C)n2)c1` [Compound B-5], the IC50 is over 1000 nM in assay [1] (setting [4]) and 100 to 1000 nM in assay [2] (setting [5]).
Turning to `CC(=O)c1cc(C)c(-c2cccc(Nc3cc(C)ccn3)n2)s1` [Compound B-6], the IC50 in assay [1] (setting [4]) and in assay [2] (setting [5]) was 100 to 1000 nM each time.
With `CC(=NO)c1cc(C)c(-c2cccc(Nc3cc(C)ccn3)n2)s1` [Compound B-7], the IC50 in assay [1] (setting [4]) was over 1000 nM; in assay [2] (setting [5]), 100 to 1000 nM.
For `CC(=O)Nc1cc(C)c(-c2cccc(Nc3cc(C)ccn3)n2)s1` [Compound B-8], the IC50 in assay [1] (setting [4]) was over 1000 nM; in assay [2] (setting [5]), 100 to 1000 nM.
Turning to `CNC(=O)c1cc(C)c(-c2cccc(Nc3cc(C)ccn3)n2)s1` [Compound B-9], the IC50 in assay [1] (setting [4]) and in assay [2] (setting [5]) was 100 to 1000 nM each time.
`CC(=O)Nc1ccc(-c2cccc(Nc3cc(C)ccn3)n2)s1` [Compound B-10, N-{5-[6-(4-methylpyridin-2-ylamino)pyridin-2-yl]thiophen-2-yl}acetamide]: the values for the 50% inhibitory concentration (IC50) in assay [1] (setting [4]) and in assay [2] (setting [5]) were 100 to 1000 nM and under 100 nM, respectively.
The like results for `CNC(=O)c1ccc(-c2cccc(Nc3cc(C)ccn3)n2)s1` [Compound B-11, N-methyl-5-[6-(4-methylpyridin-2-ylamino)pyridin-2-yl]thiophene-2-carboxamide] were, in that order, 100 to 1000 nM and under 100 nM.
The like results for `Cc1ccnc(Nc2cccc(-c3ccc(CO)s3)n2)c1` [Compound B-12, {5-[6-(4-methylpyridin-2-ylamino)pyridin-2-yl]thiophen-2-yl}methanol] were, in that order, 100 to 1000 nM and under 100 nM.
Consider `Cc1ccnc(Nc2cccc(-c3ccc(C)s3)n2)c1` [Compound B-13], for which the values for the concentration for half-maximal inhibition (IC50) in assay [1] (setting [4]) and in assay [2] (setting [5]) were over 1000 nM and 100 to 1000 nM, respectively.
For `Cc1ccnc(Nc2cccc(-c3ccc(CN(C)C)s3)n2)c1` [Compound B-14] the same measures were 100 to 1000 nM and 100 to 1000 nM.
The like results for `CC(=NO)c1ccc(-c2cccc(Nc3cc(C)ccn3)n2)s1` [Compound B-15, 1-{5-[6-(4-methylpyridin-2-ylamino)pyridin-2-yl]thiophen-2-yl}ethanone oxime] were, in that order, 100 to 1000 nM and under 100 nM.
For `Cc1ccnc(Nc2cccc(-c3ccc(Cl)s3)n2)c1` [Compound B-16] the same measures were over 1000 nM and 100 to 1000 nM.
`COc1ccnc(Nc2cccc(-c3ccc(C(C)=O)s3)n2)c1` [Compound B-17, 1-{5-[6-(4-methoxypyridin-2-ylamino)pyridin-2-yl]thiophen-2-yl}ethanone]: the values for the IC50 in assay [1] (setting [4]) and in assay [2] (setting [5]) were 100 to 1000 nM and under 100 nM, respectively.
For `CON=C(C)c1ccc(-c2cccc(Nc3cc(C)ccn3)n2)s1` [Compound B-18] the same measures were over 1000 nM and 100 to 1000 nM.
For `COC(=O)c1ccc(-c2cccc(Nc3cc(C)ccn3)n2)s1` [Compound B-19] the same measures were over 1000 nM and 100 to 1000 nM.
For `Cc1ccnc(Nc2cccc(-c3ccc(C(=O)O)s3)n2)c1` [Compound B-20] the same measures were over 1000 nM and 100 to 1000 nM.
Turning to `Cc1ccnc(Nc2cccc(-c3sc([N+](=O)[O-])cc3C)n2)c1` [Compound B-21], the IC50 in assay [1] (setting [4]) and in assay [2] (setting [5]) was over 1000 nM throughout.
For the compound `Cc1ccnc(Nc2cccc(-c3ccc(C(=O)N(C)C)s3)n2)c1` [Compound B-22], the IC50 was over 1000 nM in assay [1] (setting [4]) and 100 to 1000 nM in assay [2] (setting [5]).
For `Cc1ccnc(Nc2cccc(-c3ccc(C(N)=O)s3)n2)c1` [Compound B-23, 5-[6-(4-methylpyridin-2-ylamino)pyridin-2-yl]thiophene-2-carboxamide] the same measures were over 1000 nM and under 100 nM.
Consider `Cc1ccnc(Nc2cccc(-c3ccc(C(=O)NCCO)s3)n2)c1` [Compound B-24], for which the IC50 in assay [1] (setting [4]) and in assay [2] (setting [5]) was 100 to 1000 nM in each case.
Turning to `CNCc1ccc(-c2cccc(Nc3cc(C)ccn3)n2)s1` [Compound B-25], the IC50 in assay [1] (setting [4]) is over 1000 nM; in assay [2] (setting [5]) it was 100 to 1000 nM.
For `CC(=O)c1ccc(-c2cccc(Nc3cc(N(C)C)ncn3)n2)s1` [Compound B-26] the same measures were over 1000 nM and 100 to 1000 nM.
For the compound `Cc1ccnc(Nc2cccc(-c3cccs3)n2)c1` [Compound B-27], the figures for the IC50 in assay [1] (setting [4]) and in assay [2] (setting [5]) were over 1000 nM and 100 to 1000 nM, respectively.
The like results for `Cc1ccnc(Nc2cccc(-c3ccc([N+](=O)[O-])s3)n2)c1` [Compound B-28] were, in that order, over 1000 nM and 100 to 1000 nM.
For `CC(=O)c1ccc(-c2ncc(C)c(Nc3cc(C)ccn3)n2)s1` [Compound B-29], the results for the IC50 in assay [1] (setting [4]) and in assay [2] (setting [5]) were over 1000 nM and 100 to 1000 nM, respectively.
The like results for `CC(=O)c1ccc(-c2cccc(Nc3cc(OC(C)C)ncn3)n2)s1` [Compound B-30, 1-{5-[6-(6-isopropoxypyrimidin-4-ylamino)pyridin-2-yl]thiophen-2-yl}ethanone] were, in that order, over 1000 nM and under 100 nM.

For the origin of these results see patent publication US7803801B2, “Aminopyridine compounds having Syk inhibitory activity” (Japan Tobacco, Inc., priority 2005, dated 2010).
